Here are results for 1 compound from US9850216B2 (H. LEE MOFFITT CANCER CENTER AND RESEARCH INSTITUTE, INC., priority 2013, dated 2017).

Assay [1] has as its target T1, ACK1 (Homo sapiens, UniProt Q07912). Briefly: 32P Hotspot assay (Reaction Biology), ACK1 IC50. In kind it is biochemical. The procedure: (§1) 8 compounds were tested against […], ACK1, Src and ALK in various combinations. […] Reactions were carried out at 10 μM ATP.
Assay [2] concerns AR and H3K4me3 at intron 2 of AR gene. Briefly: ChIP-qPCR of AR and H3K4me3 at intron 2 of AR gene. In kind it is cell-based, human. The note with it: absence of androgen (FIG. 7). As to the method:
LNCaP cells treated with DZ1-067 and ChIP was performed using AR, H3K4me3, or IgG antibodies followed by qPCR using primers corresponding to intron 2, or control region. *p<0.05, **p<0.05, ***p<0.05, ****p<0.05.
To determine the functional and physiological relevance of pY88-H4/WDR5 interaction, and given the interaction of AR with MLL associated complex (Grasso C S, et al. The mutational landscape of lethal castration-resistant prostate cancer. Nature. 2012; 487(7406):239-43). ChIP experiments were performed to determine AR and H3K4me3 levels at the intron 2.

Another assay has as its system pY88-H4. The assay can be described thus: Endogenous H4 Y88-phosphorylation in LNCaP cells. Format: cell-based, human. Particulars: 16 hrs (FIG. 5b). As to the method:
(§2) In FIG. 5(a), equimolar amounts of purified ACK1 and H4 proteins were incubated in the presence of DZ1-067 (100 nM) and reaction subjected to immunoblotting with pY88-H4 antibodies. […] The nuclear lysates were immunoprecipitated with pY88-H4 antibodies followed by immunoblotting with H4. Lower panel is input lysate.

In a further assay the target is ALK (Homo sapiens, UniProt Q9UM73). The assay can be described thus: Kinase IC50 profiling, ALK. In kind it is biochemical. The note with it: Table 4; 10-dose; 10 μM ATP; read-out: Compound IC50 (M), ALK. The procedure: as §1
Chain of ALK (Q9UM73 19-1620): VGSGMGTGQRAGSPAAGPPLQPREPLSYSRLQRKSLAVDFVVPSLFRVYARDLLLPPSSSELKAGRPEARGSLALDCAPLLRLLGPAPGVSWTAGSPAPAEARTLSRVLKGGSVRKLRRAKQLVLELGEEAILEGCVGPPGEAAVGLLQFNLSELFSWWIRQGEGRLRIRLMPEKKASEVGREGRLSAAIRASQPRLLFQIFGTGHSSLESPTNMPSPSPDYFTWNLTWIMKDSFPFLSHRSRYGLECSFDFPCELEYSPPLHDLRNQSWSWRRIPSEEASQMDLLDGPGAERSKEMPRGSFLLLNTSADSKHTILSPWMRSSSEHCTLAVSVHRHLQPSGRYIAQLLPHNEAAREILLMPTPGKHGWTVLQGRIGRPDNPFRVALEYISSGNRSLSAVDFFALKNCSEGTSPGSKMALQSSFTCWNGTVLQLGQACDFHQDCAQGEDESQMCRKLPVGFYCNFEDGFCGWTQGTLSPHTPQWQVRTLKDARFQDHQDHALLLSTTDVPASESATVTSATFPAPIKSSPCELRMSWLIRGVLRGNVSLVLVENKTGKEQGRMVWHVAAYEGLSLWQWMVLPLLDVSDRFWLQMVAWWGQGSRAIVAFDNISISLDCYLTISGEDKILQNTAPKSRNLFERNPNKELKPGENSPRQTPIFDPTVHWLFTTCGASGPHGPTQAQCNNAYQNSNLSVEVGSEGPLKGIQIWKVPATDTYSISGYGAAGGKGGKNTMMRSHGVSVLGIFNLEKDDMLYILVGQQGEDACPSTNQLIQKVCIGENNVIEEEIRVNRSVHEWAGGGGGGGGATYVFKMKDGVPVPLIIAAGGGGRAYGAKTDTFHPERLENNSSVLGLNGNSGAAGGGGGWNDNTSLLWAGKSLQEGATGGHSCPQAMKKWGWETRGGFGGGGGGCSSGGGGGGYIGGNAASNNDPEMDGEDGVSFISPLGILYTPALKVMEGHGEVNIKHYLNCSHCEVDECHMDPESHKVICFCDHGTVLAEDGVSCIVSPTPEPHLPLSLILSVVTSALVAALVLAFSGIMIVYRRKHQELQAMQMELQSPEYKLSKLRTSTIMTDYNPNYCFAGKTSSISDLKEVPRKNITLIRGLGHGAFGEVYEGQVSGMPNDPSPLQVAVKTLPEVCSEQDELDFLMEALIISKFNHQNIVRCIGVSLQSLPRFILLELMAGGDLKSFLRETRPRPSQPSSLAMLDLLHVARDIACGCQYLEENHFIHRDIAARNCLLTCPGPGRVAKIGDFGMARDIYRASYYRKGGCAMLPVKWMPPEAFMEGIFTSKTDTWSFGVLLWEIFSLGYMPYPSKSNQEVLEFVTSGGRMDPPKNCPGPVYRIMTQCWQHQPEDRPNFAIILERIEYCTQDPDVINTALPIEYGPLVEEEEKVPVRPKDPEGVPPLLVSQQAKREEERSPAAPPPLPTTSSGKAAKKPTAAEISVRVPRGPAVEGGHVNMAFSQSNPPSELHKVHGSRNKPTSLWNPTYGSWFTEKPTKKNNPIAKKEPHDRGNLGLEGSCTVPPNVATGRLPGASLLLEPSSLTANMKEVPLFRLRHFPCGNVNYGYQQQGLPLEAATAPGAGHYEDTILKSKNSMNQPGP
Assay [3] has as its system AR. Briefly: AR protein levels in androgen-deprived prostate cancer cells, immunoblotting. Format: cell-based, human. The note with it: immunoblotting (FIG. 2). As to the method:
Transcriptional regulation of the AR gene itself is a paradigm that merits thorough investigation. […] Whether AR utilizes ACK1 to facilitate its transcriptional co-activator function is not known. […] Cells were also treated with ACK1-specific small molecule inhibitors, DZ1-067 or AIM-100.

The subject of another assay is LNCaP cells. The assay can be described thus: Cell proliferation, trypan blue exclusion, LNCaP. In kind it is cell-based, human. Particulars: Homo sapiens, LNCaP; 36 hrs, viable cells by trypan blue exclusion; read-out: IC50, inhibition of cell growth in LNCaP cells. The procedure: (§3) The number of viable cells was counted by trypan blue exclusion assay.
(§4) Three distinct human prostate cancer derived cell lines, LNCaP, LAPC4 and VCaP were either DMSO treated or treated with 1, 2.5, 5, 7.5 and 10 μM of inhibitors, AIM-100, (R)-9b and (S)-9b for 36 hrs and the number of viable cells were counted by trypan blue exclusion assay.
(§5) The ability of the ACK1 inhibitors to suppress proliferation of prostate cancer cell lines were also assessed. AIM-100, an ACK1 inhibitor, originally screened by Amgen was used as a control. […] Overall, it appears that ACK1 is needed for androgen-independent growth of prostate cancer cells.

The subject of another assay is VCaP cells. The assay can be described thus: Cell proliferation, trypan blue exclusion, VCaP. In kind it is cell-based, human. The note with it: Homo sapiens, VCaP; 36 hrs, viable cells by trypan blue exclusion; read-out: IC50, inhibition of cell growth in VCaP cells. As to the method:
as §3, §4, §5

A further assay has as its target c-Src (Homo sapiens, UniProt P12931). The assay can be described thus: Kinase IC50 profiling, c-Src. In kind it is biochemical. The note with it: Table 3; 10-dose; 10 μM ATP; read-out: Compound IC50* (M): c-Src. As to the method:
as §1

Assay [4] has as its target T1, ACK1. The assay can be described thus: ACK1 ELISA: phosphorylation of AKT-derived peptide. In kind it is biochemical. The note with it: 10 μM, Table 1, replicate values listed.
In a further assay the test system is pY88-H4 marks in AR gene. Briefly: ChIP-qPCR of pY88-H4 marks at the AR gene. In kind it is cell-based, human. Particulars: cells grown in absence of androgen (FIG. 6). As to the method:
In FIG. 6(a), the human AR gene and two pY88-H4 binding sites are shown. […] VCaP: *p<0.05, **p<0.05; LNCaP: *p<0.05, **p<0.05
To determine whether ACK1 modifies chromatin at AR gene locus, LNCaP and LAPC4 cells grown in the absence of androgen and were treated with DZ1-067. Chromatin immunoprecipitation (ChIP) was performed using pY88-H4 antibodies, followed by real time PCR with primers corresponding to the AR promoter, intron 2 and 3′UTR (FIG. 6a). […] These marks were also deposited at 3′UTR of the AR gene but not at the promoter region (FIG. 6b, c).

Assay [5] deals with AR. The assay can be described thus: AR mRNA by real time PCR in androgen-deprived prostate cancer cells. Particulars: overnight treatment (FIG. 3a, b). In kind it is cell-based, human. An excerpt: Total RNA was isolated followed by qPCR with AR primers. VCaP, *p=0.022; LNCaP, *p=0.042, **p=0.047. […] Total RNA was isolated followed by qPCR with PSA primers.
Assay [6] has as its target T1, ACK1. Briefly: In vitro kinase assay, purified ACK1 and histone H4, pY88-H4 immunoblotting. Format: biochemical. Also on record: made in house; host or cells: insect cells. Particulars: DZ1-067 100 nM (FIG. 5a). The procedure: as §2
To assess direct binding of ACK1 to H4, in vitro kinase assay was performed using purified ACK1 and H4 (New England Biolabs). Human ACK1 was expressed in insect cells and purified to homogeneity. Immunoblotting with pY88-H4 and pTyr antibodies confirmed that indeed H4 is directly Tyr-phosphorylated by ACK1 (FIG. 5a).

SMILES strings stand for the structures. Values joined by “and” are separate entries in the source; they are usually repeats but may differ in a detail not shown here. Identical values can stand only once. Like-named read-outs stand apart in the source and are kept apart here.

T1 sequence (Q07912 whole entry): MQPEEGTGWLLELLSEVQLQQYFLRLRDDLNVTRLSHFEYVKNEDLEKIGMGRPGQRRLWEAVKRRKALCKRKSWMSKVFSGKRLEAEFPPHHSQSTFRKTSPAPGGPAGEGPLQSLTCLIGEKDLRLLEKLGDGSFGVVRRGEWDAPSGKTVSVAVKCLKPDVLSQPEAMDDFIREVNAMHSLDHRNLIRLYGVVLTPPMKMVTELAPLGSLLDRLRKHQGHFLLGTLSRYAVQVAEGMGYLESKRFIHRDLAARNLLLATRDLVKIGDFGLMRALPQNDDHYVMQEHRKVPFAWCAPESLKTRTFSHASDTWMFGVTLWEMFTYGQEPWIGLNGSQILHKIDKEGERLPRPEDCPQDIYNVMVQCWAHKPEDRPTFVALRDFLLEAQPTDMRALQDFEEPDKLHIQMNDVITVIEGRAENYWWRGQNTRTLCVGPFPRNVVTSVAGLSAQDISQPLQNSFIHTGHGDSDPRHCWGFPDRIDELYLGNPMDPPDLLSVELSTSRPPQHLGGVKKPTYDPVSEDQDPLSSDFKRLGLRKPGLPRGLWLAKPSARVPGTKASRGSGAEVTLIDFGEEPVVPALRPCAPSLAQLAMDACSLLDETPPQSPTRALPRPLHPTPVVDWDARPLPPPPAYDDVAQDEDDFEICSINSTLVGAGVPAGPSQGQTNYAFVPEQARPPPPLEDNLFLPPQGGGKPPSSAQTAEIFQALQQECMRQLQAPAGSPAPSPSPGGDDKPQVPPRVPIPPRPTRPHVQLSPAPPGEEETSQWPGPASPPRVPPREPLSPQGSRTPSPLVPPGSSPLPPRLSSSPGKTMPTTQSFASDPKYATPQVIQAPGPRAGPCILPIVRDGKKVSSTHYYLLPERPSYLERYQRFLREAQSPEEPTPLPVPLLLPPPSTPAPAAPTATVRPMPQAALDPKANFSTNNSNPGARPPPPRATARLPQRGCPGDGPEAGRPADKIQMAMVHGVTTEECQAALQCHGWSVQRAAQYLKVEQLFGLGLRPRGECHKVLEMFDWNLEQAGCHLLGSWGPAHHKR
Chain of c-Src (P12931 whole entry): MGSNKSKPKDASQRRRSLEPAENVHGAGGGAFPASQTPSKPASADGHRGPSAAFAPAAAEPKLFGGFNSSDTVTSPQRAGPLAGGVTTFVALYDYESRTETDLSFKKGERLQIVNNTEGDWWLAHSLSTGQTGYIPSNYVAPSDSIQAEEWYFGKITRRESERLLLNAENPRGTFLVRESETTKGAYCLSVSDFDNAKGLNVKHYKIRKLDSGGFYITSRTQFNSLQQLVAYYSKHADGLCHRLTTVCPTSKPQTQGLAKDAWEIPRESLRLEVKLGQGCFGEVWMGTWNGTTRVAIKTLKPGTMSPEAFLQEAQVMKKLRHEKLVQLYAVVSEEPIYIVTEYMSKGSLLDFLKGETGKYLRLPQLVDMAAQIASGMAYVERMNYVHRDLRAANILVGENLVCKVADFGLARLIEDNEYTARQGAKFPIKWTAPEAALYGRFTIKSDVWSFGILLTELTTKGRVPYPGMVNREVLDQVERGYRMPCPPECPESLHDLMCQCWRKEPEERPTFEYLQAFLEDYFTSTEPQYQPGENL

`CN1CCN(c2ccc(Nc3ncc(Cl)c(NC[C@H]4CCCO4)n3)cc2)CC1` [DZ1-067, (R)-5-chloro-N2-(4-(4-methylpiperazin-1-yl)phenyl)-N4-((tetrahydrofuran-2-yl)methyl)pyrimidine-2,4-diamine]: the IC50 is 5.6e-08 M and 5.78e-08 M and 6.05e-08 M on ACK1 [1] (Table 1, unit inferred, (RB) = Reaction Biology, replicates listed, read-out: IC50); 6.05e-08 M on ACK1 [1] (Table 3, 10-dose, 3-fold dilution from 10 μM, 10 μM ATP, read-out: Compound IC50* (M): ACK1); 5.78e-08 M at ACK1 [1] (Table 4, 10-dose, 10 μM ATP, read-out: Compound IC50 (M), ACK1); 1.43e-07 M on ALK; 1800 nM with LNCaP cells; 2000 nM in the assay on VCaP cells. In addition, the IC50 at c-Src worked out at 4.38e-07 M. The “AR and H3K4me3 methyl marks at intron 2 (ChIP)” value in assay [2] is on record as “abolished”. Also, the “endogenous pY88-phosphorylation of H4 in LNCaP cells” value in the assay with pY88-H4 is on record as “eliminated”. Further, the AR protein levels result in the assay on AR [3] was “significant downregulation the AR protein”. The “% Inhibition at 10 μM (ELISA)” value on ACK1 [4] was 91%. Further, the inhibition at 10 µM at ACK1 [4] (read-out: % Inhibition at 10 μM (ELISA)) was 93%. Also, the “pY88-H4 epigenetic marks in AR gene (ChIP)” value in the assay with pY88-H4 marks in AR gene is listed as “erased”. Moreover, the “AR mRNA levels” value in the assay on AR [5] is on record as “significantly suppressed”. The “H4 Tyr-phosphorylation by purified ACK1” value on ACK1 [6] is recorded as “abrogated”.
